Assays:
[1] = biological target: T1, BA/F3-FLT3-ITD + D835Y cells (Homo sapiens, UniProt P36888, D835Y, cells depend on it, form not given); assay: Cell proliferation assay (CellTiter-Glo), engineered BA/F3 cells; assay type: cell-based, murine; conditions: BaF3 FLT3 ITD/D835Y cells, 3d-Growth; read-out: BaF3_FLT3 ITD/D835Y 3d-Growth: IC50
T1 sequence (P36888 1-993 D835Y): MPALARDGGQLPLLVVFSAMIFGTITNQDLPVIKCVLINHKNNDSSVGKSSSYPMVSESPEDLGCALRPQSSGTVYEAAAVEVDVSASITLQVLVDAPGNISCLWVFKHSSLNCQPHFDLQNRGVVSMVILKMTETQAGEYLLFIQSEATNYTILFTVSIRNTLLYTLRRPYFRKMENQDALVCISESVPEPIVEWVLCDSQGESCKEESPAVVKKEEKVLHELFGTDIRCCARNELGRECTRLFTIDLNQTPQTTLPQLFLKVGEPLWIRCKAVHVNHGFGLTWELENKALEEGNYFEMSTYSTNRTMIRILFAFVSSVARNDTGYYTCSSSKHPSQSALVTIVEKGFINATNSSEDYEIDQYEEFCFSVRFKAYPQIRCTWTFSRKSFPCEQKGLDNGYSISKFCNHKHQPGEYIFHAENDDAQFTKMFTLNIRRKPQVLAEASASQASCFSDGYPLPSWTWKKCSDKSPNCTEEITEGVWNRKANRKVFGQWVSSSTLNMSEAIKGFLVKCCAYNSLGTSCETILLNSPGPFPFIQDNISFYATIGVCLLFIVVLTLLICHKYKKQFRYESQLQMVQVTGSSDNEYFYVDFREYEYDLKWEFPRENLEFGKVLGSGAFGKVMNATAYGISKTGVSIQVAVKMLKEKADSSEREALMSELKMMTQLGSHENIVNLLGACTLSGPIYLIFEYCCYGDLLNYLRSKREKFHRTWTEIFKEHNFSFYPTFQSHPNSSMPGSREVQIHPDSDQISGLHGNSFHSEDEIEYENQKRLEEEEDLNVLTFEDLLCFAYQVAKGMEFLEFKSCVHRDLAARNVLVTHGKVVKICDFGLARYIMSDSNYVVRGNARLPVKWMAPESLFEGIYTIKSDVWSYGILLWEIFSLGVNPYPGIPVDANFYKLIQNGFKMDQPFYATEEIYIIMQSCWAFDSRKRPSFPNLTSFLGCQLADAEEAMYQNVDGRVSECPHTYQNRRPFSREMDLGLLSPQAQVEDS
How it was run: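 MOLM-14 AML cells (endogenous FLT3 ITD, AC220-selected D835Y or F691L variants) or murine Ba/F3 expressing full-length FLT3 ITD/D835Y, without IL-3 for FLT3 dependence, 1×10^4 cells/well. Eight-point 1:3 series from 1 μM final, 0.2% DMSO, 3 days at 37 °C. CellTiter-Glo luminescence (ATP) gave IC50.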

c-KIT = biological target: T2, c-KIT (Homo sapiens, UniProt P10721); assay: AlphaScreen kinase assay with recombinant enzyme, c-KIT; assay type: biochemical; conditions: 100ATP, 8pt, GMean
T2 construct: purchased Millipore 14-559K
T2 sequence (P10721 26-976): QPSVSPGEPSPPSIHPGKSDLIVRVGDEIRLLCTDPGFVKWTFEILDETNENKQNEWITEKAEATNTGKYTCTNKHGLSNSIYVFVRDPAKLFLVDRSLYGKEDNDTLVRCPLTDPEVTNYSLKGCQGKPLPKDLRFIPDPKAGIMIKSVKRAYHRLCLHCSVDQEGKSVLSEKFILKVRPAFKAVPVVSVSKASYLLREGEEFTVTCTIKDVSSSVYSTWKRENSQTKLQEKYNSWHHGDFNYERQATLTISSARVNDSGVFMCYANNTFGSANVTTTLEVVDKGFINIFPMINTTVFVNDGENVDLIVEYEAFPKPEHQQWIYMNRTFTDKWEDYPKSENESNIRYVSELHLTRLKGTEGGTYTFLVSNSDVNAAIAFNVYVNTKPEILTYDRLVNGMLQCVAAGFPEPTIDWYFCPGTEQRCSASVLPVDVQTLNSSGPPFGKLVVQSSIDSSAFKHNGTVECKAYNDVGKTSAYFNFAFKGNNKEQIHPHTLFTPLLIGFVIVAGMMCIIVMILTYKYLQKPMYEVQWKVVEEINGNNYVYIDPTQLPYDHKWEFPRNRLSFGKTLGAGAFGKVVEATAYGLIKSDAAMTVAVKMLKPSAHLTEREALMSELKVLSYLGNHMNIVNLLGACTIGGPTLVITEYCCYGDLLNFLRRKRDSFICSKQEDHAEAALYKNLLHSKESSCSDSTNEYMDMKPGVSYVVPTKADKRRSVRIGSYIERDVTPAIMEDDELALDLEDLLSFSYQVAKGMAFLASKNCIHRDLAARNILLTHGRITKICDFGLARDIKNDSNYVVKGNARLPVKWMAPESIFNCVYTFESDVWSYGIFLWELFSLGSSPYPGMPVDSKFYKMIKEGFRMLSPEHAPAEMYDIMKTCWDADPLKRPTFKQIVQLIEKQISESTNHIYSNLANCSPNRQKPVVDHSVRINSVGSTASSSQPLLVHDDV
How it was run: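 Compounds in DMSO added to enzyme plus biotin-poly(Glu4-Tyr) (30 nM) in assay buffer, then ATP added. Streptavidin donor beads added (20 min, RT), then PY20 acceptor beads (60 min, RT), both at 10 μg/mL final in stop/detection buffer. IC50 conditions: 10 μM FLT3-D835Y/ITD, 100 μM c-KIT.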

| GI50 [1] | IC50 (c-KIT) | Compound |
| --- | --- | --- |
| 0.0001 to 10 µM | 0.0001 to 10 µM | N=C(N)N1CCN(C(=O)c2cccc(-c3cnc4[nH]c(-c5ccccc5)cc4c3)n2)CC1 [Compound P-0057, 4-[6-(2-phenyl-1H-pyrrolo[2,3-b]pyridin-5-yl)pyridine-2-carbonyl]piperazine-1-carboxamidine] |
| 0.0001 to 10 µM | 0.0001 to 10 µM | c1ccc(-c2cc3cc(-c4ccc5[nH]nc(NC6CCNC6)c5c4)cnc3[nH]2)cc1 (stereo not drawn) [Compound P-0059, 5-(2-phenyl-1H-pyrrolo[2,3-b]pyridin-5-yl)-N-pyrrolidin-3-yl-1H-indazol-3-amine] |
| 0.0001 to 10 µM | 0.0001 to 10 µM | NC1CCCN(C(=O)c2cccc(-c3cnc4[nH]c(-c5ccccc5)cc4c3)n2)C1 (stereo not drawn) [Compound P-0067, (3-amino-1-piperidyl)-[6-(2-phenyl-1H-pyrrolo[2,3-b]pyridin-5-yl)-2-pyridyl]methanone] |
| 0.0001 to 10 µM | 0.0001 to 10 µM | O=C(c1cccc(-c2cnc3[nH]c(-c4ccccc4)cc3c2)n1)N1CCC(O)C1 (stereo not drawn) [Compound P-0068, (3-hydroxypyrrolidin-1-yl)-[6-(2-phenyl-1H-pyrrolo[2,3-b]pyridin-5-yl)-2-pyridyl]methanone] |
| 0.0001 to 10 µM | 10 to 50 µM | O=C(c1cccc(-c2cnc3[nH]c(-c4ccccc4)cc3c2)n1)N1CCCC(O)C1 (stereo not drawn) [Compound P-0069, (3-hydroxy-1-piperidyl)-[6-(2-phenyl-1H-pyrrolo[2,3-b]pyridin-5-yl)-2-pyridyl]methanone] |
| 0.0001 to 10 µM | 10 to 50 µM | NC1CCN(C(=O)c2n[nH]c3ccc(-c4cnc5[nH]c(C6=CCN(C(=O)C7CC7)C6)cc5c4)cc23)CC1 [Compound P-0074, (4-amino-1-piperidyl)-[5-[2-[1-(cyclopropanecarbonyl)-2,5-dihydropyrrol-3-yl]-1H-pyrrolo[2,3-b]pyridin-5-yl]-1H-indazol-3-yl]methanone] |
| 0.0001 to 10 µM | 0.0001 to 10 µM | CNC1CCN(Cc2cccc(-c3cnc4[nH]c(-c5ccccc5)cc4c3)n2)C1 (stereo not drawn) [Compound P-0087, N-methyl-1-[[6-(2-phenyl-1H-pyrrolo[2,3-b]pyridin-5-yl)-2-pyridyl]methyl]pyrrolidin-3-amine] |
| 0.0001 to 10 µM | 50 to 100 µM | O=C(c1cccc(-c2cnc3[nH]c(-c4ccccc4)cc3c2)n1)N1CCC(F)(F)CC1 [Compound P-0089, (4,4-difluoro-1-piperidyl)-[6-(2-phenyl-1H-pyrrolo[2,3-b]pyridin-5-yl)-2-pyridyl]methanone] |
| 0.0001 to 10 µM | 50 to 100 µM | COC(=O)C1(C)CCN(C(=O)c2cccc(-c3cnc4[nH]c(-c5ccccc5)cc4c3)n2)CC1 [Compound P-0092, methyl 4-methyl-1-[6-(2-phenyl-1H-pyrrolo[2,3-b]pyridin-5-yl)pyridine-2-carbonyl]piperidine-4-carboxylate] |
